Results from paper PMC11020070, “Discovery of Protease-Activated Receptor 4 (PAR4)-Tethered Ligand Antagonists Using Ultralarge Virtual Screening” (ACS Pharmacology & Translational Science, 2024).
Like-named read-outs stand apart in the source and are kept apart here.

Key:
[1] = biological target: T1, mouse PAR4 (Mus musculus, UniProt O88634); experiment: Mouse platelet activity assay, flow cytometry, γ-thrombin activation; format: cell-based
T1 construct: washed mouse platelets were prepared by collecting cardiac puncture blood; endogenous in cells; host or cells: washed mouse platelets (cardiac puncture blood)
T1 sequence (O88634 17-396): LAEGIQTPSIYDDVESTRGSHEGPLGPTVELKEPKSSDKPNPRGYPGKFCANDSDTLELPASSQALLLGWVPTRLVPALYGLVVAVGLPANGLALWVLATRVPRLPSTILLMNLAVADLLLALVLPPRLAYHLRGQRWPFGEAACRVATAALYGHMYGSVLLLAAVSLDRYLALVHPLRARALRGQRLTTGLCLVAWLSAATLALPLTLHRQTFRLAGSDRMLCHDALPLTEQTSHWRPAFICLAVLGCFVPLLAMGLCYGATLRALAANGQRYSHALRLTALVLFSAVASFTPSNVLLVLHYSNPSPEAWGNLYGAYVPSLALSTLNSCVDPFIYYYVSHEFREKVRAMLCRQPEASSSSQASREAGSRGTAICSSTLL
Experimental: For mouse PAR4 activity, washed mouse platelets were prepared by collecting cardiac puncture blood with 200 μL of 20 U/mL heparin. Following centrifugation at 1000 rpm for 15 min, plasma and buffy coat were collected into a separate tube and spiked with apyrase and PGE1. After centrifuging at 1000 rpm for 8 min, the platelet-rich plasma was transferred to another tube and centrifuged at 2200 rpm for 10 min to pellet the platelets. Platelets were resuspended in TBB + apyrase + PGE1. Platelets were counted and diluted in TBB to a final concentration of 2 × 10^7 platelets/mL. 50 μL of platelets were aliquoted to each tube preincubated with 50 μL of TBB with antibodies for mouse GPIIbIIIa and P-selectin (Emfret, Eibelstadt Germany) and either test compound antagonist or DMSO control. Platelets were activated with 316 nM γ-thrombin for 30 min. Samples were then fixed with 100 μL of 2% paraformaldehyde for 20 min and diluted with 300 μL of PBS. Flow cytometry counts are measured as for human platelets on a three-laser BD LSRFortessa (Becton Dickinson) and analyzed with FloJo software.

[2] = Plasma protein binding, human plasma; format: in vitro ADME; conditions: pH 7.4, read-out: human PPB fu
[3] = Microsomal stability, mouse liver microsomes; format: in vitro ADME; conditions: for CLint scaled at 1 µM: pH 7.4, mouse liver microsomes, in vitro, reaction started with NADPH; for mouse CLhep: predicted hepatic clearance from mouse liver microsomes
Experimental: The metabolic stability of each compound was investigated in mouse and human hepatic microsomes using substrate depletion methodology (% parent compound remaining). Prior to use, microsomes were removed from the freezer and allowed to thaw in a 37 °C water bath before being placed on wet ice.
In separate 96-well plates for each time point, a mixture of 0.1 M potassium phosphate-buffered (pH 7.4), 3 mM MgCl2, and 2.5 mg/mL microsomes were prewarmed at 37 °C for 5 min. Following the preincubation, a 1 μM test compound and 1 mM NADPH (for 3, 7, 15, 25, or 45 min time points) or buffer (for 0 min time point) were added to initiate the reaction. Under standard conditions, reactions were initiated with the addition of NADPH. To delineate the contribution of esterases, some experiments were initiated by the addition of substrate in the presence or absence of NADPH. Plates were incubated at 37 °C under ambient oxygenation. At the respective times, each plate’s reaction was precipitated by the addition of 2 volumes of ice-cold acetonitrile containing an internal standard (carbamazepine, 50 nM). The plates were centrifuged at 4000 rcf (4 °C) for 5 min. The resulting supernatants were transferred and diluted 1:1 (supernatant:water) into new 96-well plates in preparation for LC/MS/MS analysis. Each compound was assayed in triplicate within the same 96-well plate. The in vitro half-life (t1/2, min, eq 1), intrinsic clearance (CLint, mL/min/kg, eq 2), and subsequent predicted hepatic clearance (CLhep, mL/min/kg, eq 3) were determined employing the following equations [drawing 1] 1 [drawing 2] 2 [drawing 3] 3 The estimated percent contribution to metabolism was calculated from the percent substrate lost plots generated from metabolic incubations initiated with the addition of a test compound. Calculations compared the area under the curve (AUC) from conditions in the presence and absence of NADPH and buffer-only (control) conditions (eqs 4 and 5). AUC was calculated by using the trapezoidal method [drawing 4] 4 [drawing 5] 5
The analysis of in vitro samples from microsomal stability or plasma protein binding experiments was determined by employing LCMS/MS with an electrospray ionization-enabled 5500 Sciex instrument (Sciex, Foster City, CA) that was coupled to Agilent HPLC pumps and an autosampler (Agilent Technologies, Santa Clara, CA). Analytes were separated by gradient elution using a Kinetex C18 column (2.1 mm × 50 mm, 5 μm; Phenomenex, Torrance, CA) warmed to 35 °C. Mobile phase A was 0.5% formic acid in water, and mobile phase B was 0.5% formic acid in acetonitrile. […] The total run time was 2.8 min, and the HPLC flow rate was 0.5 mL/min. Mass spectral analyses were performed using multiple reaction monitoring, with transitions and voltages specific for each analyte using a Turbo Ion Spray source (source temperature of 500 °C) in positive ionization mode (5.0 kV spray voltage). Multiple reaction monitoring transitions were the following: 6110B8 (m/z 345.02 → 149.03, DP = 31; EP = 10; CE = 37 and CXP = 14), 6G3R (m/z 421.06 → 225.12, DP = 91; EP = 10; CE = 39 and CXP = 12), 5D22 (m/z 309.068 → 211.16, DP = 131; EP = 10; CE = 29 and CXP = 12), and carbamazepine (m/z 237 → 194, DP = 96; EP = 10; CE = 25 and CXP = 8). Data were analyzed using OS Sciex Analyst 1.5.1 (SCIEX, Framingham, MA), Graphpad Prism 10.1.0 (GraphPad Software, Boston, Massachusetts), and Microsoft Excel version 2310 (Microsoft, Redmond, WA).

[4] = Plasma protein binding, mouse plasma; format: in vitro ADME; conditions: pH 7.4, read-out: mouse PPB fu
Experimental: The protein binding of each compound was determined in mouse plasma via equilibrium dialysis employing single-use RED plates with inserts (Thermo Fisher Scientific, Rochester, NY). Plasma (220 μL) was added to a 96-well plate containing test compound (5 μL) and mixed thoroughly. Subsequently, 200 μL of the plasma–compound mixture was transferred to the cis chamber (red) of the RED plate with an accompanying 350 μL of phosphate buffer (25 mM, pH 7.4) in the trans chamber. The RED plate was sealed and incubated for 4 h at 37 °C with shaking. At completion, 50 μL aliquots from each chamber were diluted 1:1 (50 μL) with either plasma (cis) or buffer (trans) and transferred to a new 96-well plate, at which time ice-cold acetonitrile (2 volumes) was added to extract the matrices. The plate was centrifuged (3000 rpm, 10 min), and supernatants were transferred and diluted 1:1 (supernatant: water) into a new 96-well plate, which was then sealed in preparation for LC/MS/MS analysis. Each compound was assayed in triplicate within the same 96-well plate.
The analysis of in vitro samples from microsomal stability or plasma protein binding experiments was determined by employing LCMS/MS with an electrospray ionization-enabled 5500 Sciex instrument (Sciex, Foster City, CA) that was coupled to Agilent HPLC pumps and an autosampler (Agilent Technologies, Santa Clara, CA). Analytes were separated by gradient elution using a Kinetex C18 column (2.1 mm × 50 mm, 5 μm; Phenomenex, Torrance, CA) warmed to 35 °C. Mobile phase A was 0.5% formic acid in water, and mobile phase B was 0.5% formic acid in acetonitrile. […] The total run time was 2.8 min, and the HPLC flow rate was 0.5 mL/min. […] Data were analyzed using OS Sciex Analyst 1.5.1 (SCIEX, Framingham, MA), Graphpad Prism 10.1.0 (GraphPad Software, Boston, Massachusetts), and Microsoft Excel version 2310 (Microsoft, Redmond, WA).

[5] = Table 4 summary, read-out: mouse PAR4 IC50
[6] = mouse platelets, 316 nM γ-thrombin, GPIIbIIIa (JonA), read-out: Mouse Platelets JonA IC50
[7] = mouse platelets, 316 nM γ-thrombin, P-selectin, read-out: Mouse Platelets P-Sel IC50

Row | Structure (SMILES) | IC50 [1, 5] [nM] | IC50 [1, 6] [nM] | IC50 [1, 7] [nM] | fraction unbound at 4 h [2] | CLint scaled at 1 µM [3] [mL/min/kg] | mouse CLhep [3] [mL/min/kg] | fraction unbound at 4 h [4]
1 | Cc1cc(C(=O)Nc2n[nH]c(OC(F)F)n2)nn1-c1ccccc1 [Compound 9] | 1450 | 1450 | 1450 | 0.036 | – | – | –
2 | Cn1nc(C(=O)Nc2n[nH]c(-c3c(F)cccc3F)n2)cc1C1CC1 [Compound 12] | – | 401 | 370 | 0.052 | 11500 | 89.3 | 0.169
3 | O=C(Nc1nc[nH]n1)c1nn(-c2ccccc2)c2c1CCC2 [Compound 17] | 3330 | 3330 | 4020 | 0.029 | 2440 | 86.8 | 0.006
4 | O=C(Nc1n[nH]c(-c2ccc(F)cc2F)n1)c1nn(-c2ccccc2)c2c1CCCC2 [Compound 31] | 367 | 367 | 330 | 0.015 | 19900 | 89.6 | 0.044
5 | COc1cccc(-c2nc(NC(=O)c3nn(-c4ccccc4)c4c3CCCC4)n[nH]2)c1 [Compound 32] | 269 | 269 | 298 | 0.007 | – | – | –
